Experimental data as given in patent publication US20150247179A1 (Les Laboratoires Servier, priority 2013, published 2015).

Key:
[1] = human
Method: (§1) Each active ingredient was incubated at 0.1 μM at 37° C. […] The reaction is initiated by addition of NADPH 1 mM. The incubation is monitored in kinetic form. At the incubation timepoints of 7 min, 17 min, 30 min and then 60 min, an incubation aliquot (100 μL) is sampled and the enzymatic reaction is stopped by adding to that aliquot a to volume of solvent (100 μL of methanol) which is placed in ice for 10 minutes.
(§2) At each incubation timepoint, the active ingredient is quantified by high-performance liquid chromatography (HPLC) coupled with mass spectrometry (MS).

CYP1A2 [2] = tested on: CYP1A2
Method: as §1, §2

CYP2B6 = target: T1, CYP2B6 (Homo sapiens, UniProt P20813)
T1 sequence (P20813 1-491): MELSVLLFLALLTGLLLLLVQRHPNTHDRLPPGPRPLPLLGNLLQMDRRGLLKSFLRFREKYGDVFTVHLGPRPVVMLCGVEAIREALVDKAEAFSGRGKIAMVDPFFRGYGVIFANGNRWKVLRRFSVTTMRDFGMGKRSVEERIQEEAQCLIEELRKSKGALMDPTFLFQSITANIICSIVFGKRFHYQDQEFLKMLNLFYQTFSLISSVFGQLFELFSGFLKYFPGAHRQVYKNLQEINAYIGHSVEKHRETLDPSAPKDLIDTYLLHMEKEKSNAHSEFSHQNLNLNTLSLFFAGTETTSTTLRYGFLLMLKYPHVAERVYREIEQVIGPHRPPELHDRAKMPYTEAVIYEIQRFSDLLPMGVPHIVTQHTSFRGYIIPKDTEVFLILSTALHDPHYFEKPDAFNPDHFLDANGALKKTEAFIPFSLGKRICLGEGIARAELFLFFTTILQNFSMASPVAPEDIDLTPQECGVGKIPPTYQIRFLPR
Method: as §1, §2

CYP2C9 [3] = target: T2, CYP2C9 (Homo sapiens, UniProt P11712)
T2 sequence (P11712 whole entry): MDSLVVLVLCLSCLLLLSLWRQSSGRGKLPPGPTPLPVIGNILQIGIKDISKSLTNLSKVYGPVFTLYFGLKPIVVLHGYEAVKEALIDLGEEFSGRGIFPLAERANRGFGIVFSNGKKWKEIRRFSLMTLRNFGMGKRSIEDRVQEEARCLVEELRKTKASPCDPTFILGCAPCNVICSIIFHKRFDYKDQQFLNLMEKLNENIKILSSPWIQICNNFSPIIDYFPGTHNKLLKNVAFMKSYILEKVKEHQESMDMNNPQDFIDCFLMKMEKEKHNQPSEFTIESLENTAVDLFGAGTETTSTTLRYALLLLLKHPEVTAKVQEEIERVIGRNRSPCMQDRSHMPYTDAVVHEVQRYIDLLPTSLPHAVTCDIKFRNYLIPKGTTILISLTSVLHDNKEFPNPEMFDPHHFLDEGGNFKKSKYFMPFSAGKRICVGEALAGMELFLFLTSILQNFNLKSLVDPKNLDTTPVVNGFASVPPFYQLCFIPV
Method: as §1, §2

CYP2D6 [4] = target: T3, CYP2D6 (Homo sapiens, UniProt P10635)
T3 sequence (P10635 whole entry): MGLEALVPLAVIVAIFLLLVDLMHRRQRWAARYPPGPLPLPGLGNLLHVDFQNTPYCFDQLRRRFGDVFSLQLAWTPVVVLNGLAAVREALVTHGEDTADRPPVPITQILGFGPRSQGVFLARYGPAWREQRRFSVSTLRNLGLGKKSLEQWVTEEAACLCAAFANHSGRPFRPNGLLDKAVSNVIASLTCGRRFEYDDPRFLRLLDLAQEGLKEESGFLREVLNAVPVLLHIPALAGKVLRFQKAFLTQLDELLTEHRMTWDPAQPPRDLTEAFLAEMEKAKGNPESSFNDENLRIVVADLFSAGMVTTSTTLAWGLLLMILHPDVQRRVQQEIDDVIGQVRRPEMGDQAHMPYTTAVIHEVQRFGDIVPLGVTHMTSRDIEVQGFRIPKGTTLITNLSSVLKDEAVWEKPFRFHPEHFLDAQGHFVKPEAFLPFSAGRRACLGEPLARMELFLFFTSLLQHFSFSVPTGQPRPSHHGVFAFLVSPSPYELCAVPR
Method: as §1, §2

CYP3A4 = CYP3A4 (Homo sapiens, UniProt P08684)
CYP3A4, sequence (P08684 2-503): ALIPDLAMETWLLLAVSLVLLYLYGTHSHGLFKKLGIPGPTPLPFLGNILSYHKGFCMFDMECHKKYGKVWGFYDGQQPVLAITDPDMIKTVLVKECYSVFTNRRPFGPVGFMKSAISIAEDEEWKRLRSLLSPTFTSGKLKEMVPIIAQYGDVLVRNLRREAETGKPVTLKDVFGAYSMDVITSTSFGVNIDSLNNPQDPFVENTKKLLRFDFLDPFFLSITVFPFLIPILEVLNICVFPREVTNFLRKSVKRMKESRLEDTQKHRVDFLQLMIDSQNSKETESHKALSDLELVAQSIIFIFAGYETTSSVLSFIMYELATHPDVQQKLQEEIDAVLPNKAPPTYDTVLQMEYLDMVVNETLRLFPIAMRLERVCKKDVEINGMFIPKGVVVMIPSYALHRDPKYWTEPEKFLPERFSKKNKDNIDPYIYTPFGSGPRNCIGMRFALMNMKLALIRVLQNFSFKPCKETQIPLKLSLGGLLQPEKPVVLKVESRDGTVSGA
Method: as §1, §2

CYP2D6 [5] = target: T3, CYP2D6; details: In vitro parameters (literature); cited from earlier work
CYP2C8 [6] = target: T4, CYP2C8 (Homo sapiens, UniProt P10632)
T4 sequence (P10632 1-490): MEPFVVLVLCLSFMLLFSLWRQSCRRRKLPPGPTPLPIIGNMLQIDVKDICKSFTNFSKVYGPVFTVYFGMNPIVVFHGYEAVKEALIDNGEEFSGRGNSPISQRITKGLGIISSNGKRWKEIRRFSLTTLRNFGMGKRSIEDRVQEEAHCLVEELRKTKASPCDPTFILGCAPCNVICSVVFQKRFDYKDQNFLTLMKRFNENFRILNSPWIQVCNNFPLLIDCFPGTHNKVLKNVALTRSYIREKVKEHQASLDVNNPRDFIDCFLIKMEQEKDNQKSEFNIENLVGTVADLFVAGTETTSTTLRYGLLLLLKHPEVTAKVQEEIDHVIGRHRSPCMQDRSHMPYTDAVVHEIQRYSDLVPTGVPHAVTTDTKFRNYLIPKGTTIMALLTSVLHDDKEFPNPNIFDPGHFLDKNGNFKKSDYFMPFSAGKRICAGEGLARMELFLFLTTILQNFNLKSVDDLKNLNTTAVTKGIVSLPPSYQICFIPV

CYP2C8 [7] = target: T4, CYP2C8; details: In vitro parameters (literature); cited from earlier work
CYP2E1 = CYP2E1 (Homo sapiens, UniProt P05181); details: In vitro parameters (literature); cited from earlier work
CYP2E1, sequence (P05181 whole entry): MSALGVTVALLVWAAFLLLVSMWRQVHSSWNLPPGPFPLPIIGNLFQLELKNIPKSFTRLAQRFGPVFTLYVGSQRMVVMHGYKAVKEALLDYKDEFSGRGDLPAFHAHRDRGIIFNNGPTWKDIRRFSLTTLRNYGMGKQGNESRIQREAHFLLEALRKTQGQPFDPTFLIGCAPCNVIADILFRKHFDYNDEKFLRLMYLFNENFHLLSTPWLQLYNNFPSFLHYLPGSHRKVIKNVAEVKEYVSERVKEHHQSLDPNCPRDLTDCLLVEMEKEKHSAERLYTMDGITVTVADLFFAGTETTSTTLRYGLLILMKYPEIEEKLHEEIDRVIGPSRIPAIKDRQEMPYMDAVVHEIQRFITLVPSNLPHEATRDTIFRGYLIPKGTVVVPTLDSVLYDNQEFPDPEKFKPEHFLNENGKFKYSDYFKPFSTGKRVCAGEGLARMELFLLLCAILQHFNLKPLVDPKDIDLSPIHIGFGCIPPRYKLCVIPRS

CYP2C9 [8] = target: T2, CYP2C9; assay: in vitro; details: pH 7.4, inhibition of diclofenac hydroxylase (CYP2C9-dependant) activity
other major CYP450s = details: microsomes irreversibly inhibited by tienilic acid 10 μM, 20 minutes
CYP1A2 [9] = target: T5, CYP1A2 (Homo sapiens, UniProt P05177); assay: in vitro; details: pH 7.4
T5 sequence (P05177 2-516): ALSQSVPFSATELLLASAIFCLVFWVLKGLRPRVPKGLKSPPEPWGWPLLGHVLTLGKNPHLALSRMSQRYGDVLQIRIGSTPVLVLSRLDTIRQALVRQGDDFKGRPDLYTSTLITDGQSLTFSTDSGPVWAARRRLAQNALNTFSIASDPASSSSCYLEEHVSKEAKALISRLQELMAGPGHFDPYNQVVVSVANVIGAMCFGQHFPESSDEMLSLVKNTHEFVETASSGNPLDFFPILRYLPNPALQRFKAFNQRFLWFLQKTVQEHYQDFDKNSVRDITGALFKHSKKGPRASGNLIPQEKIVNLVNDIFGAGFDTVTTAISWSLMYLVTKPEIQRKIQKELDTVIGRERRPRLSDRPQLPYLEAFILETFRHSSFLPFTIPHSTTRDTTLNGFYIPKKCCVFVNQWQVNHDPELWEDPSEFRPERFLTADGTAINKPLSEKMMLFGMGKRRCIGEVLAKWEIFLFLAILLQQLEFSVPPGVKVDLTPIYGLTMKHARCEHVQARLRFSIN

CYP2A6 = target: T6, CYP2A6 (Homo sapiens, UniProt P11509); details: In vitro parameters (literature); cited from earlier work
T6 sequence (P11509 1-494): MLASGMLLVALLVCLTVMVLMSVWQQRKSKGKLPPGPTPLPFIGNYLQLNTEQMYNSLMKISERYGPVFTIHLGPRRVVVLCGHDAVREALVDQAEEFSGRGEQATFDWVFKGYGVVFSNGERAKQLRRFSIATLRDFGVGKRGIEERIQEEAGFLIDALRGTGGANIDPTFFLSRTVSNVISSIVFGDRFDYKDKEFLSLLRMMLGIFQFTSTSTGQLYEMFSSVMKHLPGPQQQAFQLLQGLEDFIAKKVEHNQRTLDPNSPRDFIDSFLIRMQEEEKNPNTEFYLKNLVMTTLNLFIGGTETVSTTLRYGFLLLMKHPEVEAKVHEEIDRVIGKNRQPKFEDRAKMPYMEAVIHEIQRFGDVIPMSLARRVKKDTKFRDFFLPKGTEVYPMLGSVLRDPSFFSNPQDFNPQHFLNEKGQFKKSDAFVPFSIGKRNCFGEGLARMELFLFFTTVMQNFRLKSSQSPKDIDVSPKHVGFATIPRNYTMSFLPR

CYP2C9 [10] = target: T2, CYP2C9; details: In vitro parameters (literature); cited from earlier work
CYP2C9 [11] = target: T2, CYP2C9; details: value for tolbutamide, used as comparator in Tables 4 and 5; cited from earlier work
CYP2C19 = CYP2C19 (Homo sapiens, UniProt P33261); details: In vitro parameters (literature); cited from earlier work
CYP2C19, sequence (P33261 whole entry): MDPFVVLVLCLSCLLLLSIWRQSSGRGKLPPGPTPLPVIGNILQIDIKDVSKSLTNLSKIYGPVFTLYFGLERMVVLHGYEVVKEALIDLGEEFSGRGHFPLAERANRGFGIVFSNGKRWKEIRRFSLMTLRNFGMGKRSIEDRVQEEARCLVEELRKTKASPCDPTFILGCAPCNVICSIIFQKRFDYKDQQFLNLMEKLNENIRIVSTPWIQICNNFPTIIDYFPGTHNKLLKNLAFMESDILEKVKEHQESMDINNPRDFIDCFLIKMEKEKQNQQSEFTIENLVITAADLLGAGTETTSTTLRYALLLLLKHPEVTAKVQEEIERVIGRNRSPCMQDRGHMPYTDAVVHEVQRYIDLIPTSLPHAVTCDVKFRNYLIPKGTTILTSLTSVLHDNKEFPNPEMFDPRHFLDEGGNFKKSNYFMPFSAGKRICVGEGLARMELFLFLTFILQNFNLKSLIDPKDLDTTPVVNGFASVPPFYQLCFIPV

CYP2C8 [12] = target: T4, CYP2C8; remark: listed apart in the source
Method: as §1, §2

CCOc1cc(CC(=O)N[C@@H](CC(C)C)c2ccccc2N2CCCCC2)ccc1C(=O)O [repaglinide]
intrinsic clearance in the presence of control microsomes [1]: 38.4-48.9 ml/min/g of proteins
inhibition of intrinsic clearance = % involvement of CYP1A2 in the oxidative metabolism (kit of isolated microsomes) (CYP1A2 [2]): No significant inhibition
inhibition of intrinsic clearance = % involvement of CYP2B6 in the oxidative metabolism (kit of isolated microsomes) (CYP2B6): No significant inhibition
inhibition of intrinsic clearance = % involvement of CYP2C9 in the oxidative metabolism (kit of isolated microsomes) (CYP2C9 [3]): No significant inhibition
inhibition of intrinsic clearance = % involvement of CYP2D6 in the oxidative metabolism (kit of isolated microsomes) (CYP2D6 [4]): No significant inhibition
inhibition of intrinsic clearance = % involvement of CYP3A4 in the oxidative metabolism (kit of isolated microsomes) (CYP3A4): No significant inhibition

CCc1nc(C)c(CN2CCN(c3cc(C(F)(F)F)ccn3)CC2)[nH]1 [EMTPP]
Ki (CYP2D6 [5]): 5.5 µM
kinact (CYP2D6 [5]): 0.09 min⁻¹

Cc1ccc(C)c(OCCCC(C)(C)C(=O)O[C@@H]2O[C@H](C(=O)O)[C@@H](O)[C@H](O)[C@H]2O)c1 [Gemfibrozil gluc., Gemfibrozil glucuronide]
percentage inhibition of amodiaquine hydroxylase activity at excess substrate (CYP2C8 [6]): remains unchanged
Ki (CYP2C8 [7]): 20 µM
kinact (CYP2C8 [7]): 0.21 min⁻¹

CCN(CC)C(=S)S [DiethylDithioCarbamate]
Ki (CYP2E1): 12.2 µM
kinact (CYP2E1): 0.02 min⁻¹

CCc1ccc(CCOc2ccc(CC3SC(=O)NC3=O)cc2)nc1 (stereo not shown) [pioglitazone]
intrinsic clearance in the presence of control microsomes [1]: 43-70 ml/min/g of proteins
inhibition of intrinsic clearance = % involvement of CYP1A2 in the oxidative metabolism (kit of isolated microsomes) (CYP1A2 [2]): No significant inhibition
inhibition of intrinsic clearance = % involvement of CYP2B6 in the oxidative metabolism (kit of isolated microsomes) (CYP2B6): No significant inhibition
inhibition of intrinsic clearance = % involvement of CYP2C9 in the oxidative metabolism (kit of isolated microsomes) (CYP2C9 [3]): No significant inhibition
inhibition of intrinsic clearance = % involvement of CYP2D6 in the oxidative metabolism (kit of isolated microsomes) (CYP2D6 [4]): No significant inhibition
inhibition of intrinsic clearance = % involvement of CYP3A4 in the oxidative metabolism (kit of isolated microsomes) (CYP3A4): No significant inhibition

S=C=NCCc1ccccc1 [Phenethyl isothiocyanate]
kinact (CYP2E1): 0.33 min⁻¹

O=C(O)COc1ccc(C(=O)c2cccs2)c(Cl)c1Cl [Tienilic acid]
inhibition at 20 min, 10 µM (CYP2C9 [8]): 92%
activity of the other major CYP450s (other major CYP450s): remains unchanged

Cc1nc2c([nH]1)c(=O)n(C)c(=O)n2Cc1ccco1 [Furafylline]
inhibition at 30 min, 10 µM (CYP1A2 [9]; microsomes): 83%
inhibition at 30 min, 10 µM (CYP1A2 [9]): ~80%

COc1c2occc2cc2ccc(=O)oc12 [8-MethOxyPsoralen]
Ki (CYP2A6): 0.3 to 1.9 µM
kinact (CYP2A6): 0.5 to 2.1 min⁻¹

CC(C(=O)O)c1ccc(C(=O)c2cccs2)cc1 (stereo not shown) [Suprofen]
Ki (CYP2C9 [10]): 3.7 to 26 µM
kinact (CYP2C9 [10]): 0.07 to 0.09 min⁻¹

CC(C)Cc1ccc(C(C)C(=O)O)cc1 (stereo not shown) [ibuprofen]
% involvement of CYP2C9 (fm), expected data (Brown et al.) (CYP2C9 [11]): (80) %

CNC(C)Cc1ccc2c(c1)OCO2 (stereo not shown) [MDMA]
Ki (CYP2D6 [5]): 23 µM
kinact (CYP2D6 [5]): 0.18 min⁻¹

CC(NC(C)(C)C)C(=O)c1cccc(Cl)c1 (stereo not shown) [bupropion]
intrinsic clearance in the presence of control microsomes [1]: 6.7-10.6 ml/min/g of proteins

COC(=O)[C@H](c1ccccc1Cl)N1CCc2sccc2C1 [Clopidogrel]
Ki (CYP2C19): 0.5 to 14.3 µM
kinact (CYP2C19): 0.056 to 0.35 min⁻¹

Cc1coc2c1CCC(C)C2 (stereo not shown) [Menthofuran]
Ki (CYP2A6): 0.84 to 2.5 µM
kinact (CYP2A6): 0.22 to 0.25 min⁻¹

Cc1ccc(-c2cc(C(F)(F)F)nn2-c2ccc(S(N)(=O)=O)cc2)cc1 [celocoxib]
intrinsic clearance in the presence of control microsomes [1]: 13.4-18.9 ml/min/g of proteins
inhibition of intrinsic clearance = % involvement of CYP1A2 in the oxidative metabolism (kit of isolated microsomes) (CYP1A2 [2]): No significant inhibition
inhibition of intrinsic clearance = % involvement of CYP2B6 in the oxidative metabolism (kit of isolated microsomes) (CYP2B6): No significant inhibition
inhibition of intrinsic clearance = % involvement of CYP2C8 in the oxidative metabolism (kit of isolated microsomes) (CYP2C8 [12]): No significant inhibition
inhibition of intrinsic clearance = % involvement of CYP2D6 in the oxidative metabolism (kit of isolated microsomes) (CYP2D6 [4]): No significant inhibition
inhibition of intrinsic clearance = % involvement of CYP3A4 in the oxidative metabolism (kit of isolated microsomes) (CYP3A4): No significant inhibition
% involvement of CYP2C9 (fm), expected data (Brown et al.) (CYP2C9 [11]): (80) %
